Assay results: patent publication US20250333420A1, “FUSED BICYCLIC PYRIMIDONES AS WRN INHIBITORS” (INCYTE CORPORATION, priority 2023, published 2025)
Structures can show the parent of a compound that is named as a salt.

Columns and labels:
WRN [1] = biological target: T1, WRN (Homo sapiens, UniProt Q14191); assay: WRN helicase activity assay (fluorescence DNA unwinding); type: biochemical; settings: 1-hr pre-incubation with enzyme; 100 μM ATP, 25 nM forked dsDNA, 1 nM WRN; geometric mean of at least 2 replicates
T1 construct: A His-tagged construct of WRN (AA S2-S1235) was produced and used for the ATPase assay; His tag; made in house; host or cells: Sf9 insect cells (baculovirus, pFastBac1)
Procedure: Compounds of the examples were tested for WRN helicase activity. DNA encoding the target protein, 6×HIS-TEV-WRN-517-945, was produced, cloned and transfected as detailed in Example D. To determine the inhibitory properties of the compounds, a 384 wells plate-based Helicase assay was set up to measure the extent of DNA unwinding (Helicase) activity of WRN. The WRN Helicase assay was designed to measure increase in fluorescence signal using a fluorescence based, donor-quencher paired forked dsDNA oligomer substrate (custom synthesis from Sigma-Aldrich) prepared by annealing equal amounts of oligo GPat-1 ([BHQ2][…]) and oligo GPat-2 ([…][TAM]). Continuous measurement of fluorescent signal was used to optimize the buffer conditions, concentration of enzyme (WRN), concentration of substrates (ATP & dsDNA), and the linearity of the Helicase reaction. All solutions were prepared in the following assay buffer: 50 mM Tris-HCl, pH-7.5, 2 mM MgCl2, 50 mM NaCl, 1 mM EGTA, 0.01% P-20, 0.05% BSA, and 2 mM DTT prepared with nuclease free water.
A serial dilution (1:3 scheme) of the compounds was prepared in neat DMSO and 100 nL of the compounds was dispensed in the Greiner black low volume (Greiner #784076) 384 wells assay plate. An 1-hr pre-incubation of the compounds with enzyme was included. A His-tagged construct of WRN (AA S2-S1235) was produced and used for the ATPase assay. Maximum inhibition control wells were set up with the addition of only assay buffer, and no inhibition control wells were set up with neat DMSO without test compounds. The reaction was initiated by addition of 5 μL substrate mix (200 μM ultrapure ATP, and 50 nM dsDNA prepared in assay buffer) and incubated at 25° C. for 35 min. A typical Helicase reaction consists of 25 nM forked dsDNA, 100 μM ATP, and 1 nM WRN prepared in assay buffer. The WRN Helicase reaction was quenched by the addition of 5 μL ‘STOP’ solution containing 100 mM EDTA (final EDTA concentration 33.33 mM) prepared in assay buffer. The plates were read on BMG PHERAstar FSX using 540/590 module to measure an increase of fluorescence. Data analysis was carried out using the Genedata software following % of control normalization. Fitting parameters include dose response IC50, Hill slope (n), maximum inhibition (S∞), and minimum inhibition (S0). The reported IC50 values for compounds in this invention are the geometric means of at least 2 independent replicates.

WRN [2] = biological target: T1, WRN; assay: WRN ATPase activity assay (ADP-Glo); type: biochemical; settings: 1-hr pre-incubation with enzyme; 100 μM ATP, 25 nM forked dsDNA, 1 nM WRN; geometric mean of at least 2 replicates
Procedure: Compounds of the Examples were tested for WRN ATPase activity. WRN ATPase activity catalyzes ATP hydrolysis to produce ADP and phosphate. DNA encoding the target protein, 6×HIS-TEV-WRN-517-945, was produced, cloned and transfected as detailed in Example D. The amount of ADP produced was measured using ADP-Glo™ Kinase Assay kit from Promega Corporation in a Greiner white regular volume 384 wells assay plate (Greiner #781075). Data was normalized to a standard curve generated using various ADP concentrations and the corresponding luminescent signal intensities at each concentration. The assay conditions were optimized for enzyme concentration (WRN), substrate concentrations (ATP & dsDNA), and the linearity of the ATPase reaction, in the following assay buffer: 50 mM Tris-HCl, pH-7.5, 2 mM MgCl2, 50 mM NaCl, 1 mM EGTA, 0.01% P-20, 0.05% BSA, and 2 mM DTT prepared with nuclease free water.
A serial dilution (1:3 scheme) of the compounds were prepared in neat DMSO, with 100 nL of the compounds dispensed in the 384 wells assay plate. An 1-hr pre-incubation of the compounds with enzyme was included. A His-tagged construct of WRN (AA S2-S1235) was produced and used for the ATPase assay. Maximum inhibition control wells were set up with the addition of only assay buffer, and no inhibition control wells were set up with neat DMSO without test compounds. The reaction was initiated by addition of 5 μL substrate mix (200 μM ultrapure ATP, and 50 nM dsDNA prepared in assay buffer) and incubated at 25° C. for 35 min. A forked dsDNA oligomer substrate was prepared by annealing equal amounts of oligo GPat-1 ([BHQ2][…]) and oligo GPat-2 ([…][TAM]) and was used as dsDNA substrate for WRN ATPase assay. A typical ATPase reaction consists of 25 nM forked dsDNA, 100 μM ATP, and 1 nM WRN prepared in assay buffer. The WRN ATPase reaction was stopped by the addition of 5 μL of ADP-Glo Reagent from ADP-Glo™ Kinase Assay kit and incubated for 40 min to deplete the unreacted ATP. Afterwards, 5 μL of Kinase Detection Reagent from the ADP-Glo™ Kinase Assay kit was added and incubated for 1 hr for the development of luminescence signal.
Luminesce signals were measured on BMG PHERAstar FSX using luminescence protocol. Data analysis was carried out using Genedata software following % of control normalization. Fitting parameters include dose response IC50, Hill slope (n), maximum inhibition (S∞), and minimum inhibition (S0). The reported IC50 values for compounds in this invention are the geometric means of at least 2 independent replicates.

T1 sequence (Q14191 2-1235): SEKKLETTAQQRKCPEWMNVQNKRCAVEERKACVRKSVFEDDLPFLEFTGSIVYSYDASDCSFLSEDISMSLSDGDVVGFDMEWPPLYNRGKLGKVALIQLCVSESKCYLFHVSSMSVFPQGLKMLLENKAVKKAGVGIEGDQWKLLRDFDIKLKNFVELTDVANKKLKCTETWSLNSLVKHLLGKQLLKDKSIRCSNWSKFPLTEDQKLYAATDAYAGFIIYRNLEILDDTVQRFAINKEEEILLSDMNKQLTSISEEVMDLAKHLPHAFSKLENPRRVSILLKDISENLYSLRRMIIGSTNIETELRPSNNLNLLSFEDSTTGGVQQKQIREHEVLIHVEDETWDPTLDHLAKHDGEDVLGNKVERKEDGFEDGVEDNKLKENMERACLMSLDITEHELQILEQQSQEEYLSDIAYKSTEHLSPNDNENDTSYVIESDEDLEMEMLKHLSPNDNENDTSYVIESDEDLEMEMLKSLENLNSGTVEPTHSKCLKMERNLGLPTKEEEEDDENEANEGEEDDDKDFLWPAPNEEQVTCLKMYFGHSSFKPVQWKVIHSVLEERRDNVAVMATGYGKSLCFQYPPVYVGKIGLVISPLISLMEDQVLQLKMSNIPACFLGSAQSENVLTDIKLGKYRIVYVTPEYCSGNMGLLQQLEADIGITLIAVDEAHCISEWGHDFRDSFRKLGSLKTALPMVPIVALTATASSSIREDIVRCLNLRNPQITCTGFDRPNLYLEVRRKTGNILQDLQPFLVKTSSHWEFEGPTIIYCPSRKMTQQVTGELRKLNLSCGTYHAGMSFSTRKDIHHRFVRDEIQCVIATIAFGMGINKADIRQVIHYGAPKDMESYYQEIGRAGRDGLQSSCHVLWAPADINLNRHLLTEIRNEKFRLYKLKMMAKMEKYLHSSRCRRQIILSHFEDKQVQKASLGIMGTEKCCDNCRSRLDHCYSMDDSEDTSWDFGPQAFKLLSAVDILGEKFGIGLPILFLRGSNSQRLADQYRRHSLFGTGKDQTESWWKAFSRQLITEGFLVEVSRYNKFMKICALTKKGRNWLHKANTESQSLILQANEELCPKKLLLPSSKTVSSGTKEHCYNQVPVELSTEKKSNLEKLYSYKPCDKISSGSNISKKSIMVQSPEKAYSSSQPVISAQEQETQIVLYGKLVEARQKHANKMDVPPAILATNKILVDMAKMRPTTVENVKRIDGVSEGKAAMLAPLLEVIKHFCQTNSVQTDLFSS

Compound | IC50 (WRN [1]) [nM] | IC50 (WRN [2]) [nM]
C=CC(=O)Nc1ccccc1-n1c(CC)nc2c(cnn2CC(=O)Nc2ccc(C(F)(F)F)cc2)c1=O [Example 1, N-(2-(6-Ethyl-4-oxo-1-(2-oxo-2-((4-(trifluoromethyl)phenyl)amino)ethyl)-1,4-dihydro-5H-pyrazolo[3,4-d]pyrimidin-5-yl)phenyl)acrylamide] | 1000 to 5000 | 1000 to 5000
C=CC(=O)Nc1ccccc1-n1c(CC)nc2c(c(C)c(C)n2CC(=O)Nc2ccc(C(F)(F)F)cc2)c1=O [Example 3, N-(2-(2-Ethyl-5,6-dimethyl-4-oxo-7-(2-oxo-2-((4-(trifluoromethyl)phenyl)amino)ethyl)-4,7-dihydro-3H-pyrrolo[2,3-d]pyrimidin-3-yl)phenyl)acrylamide] | < 100 | < 100
C=CC(=O)Nc1ccccc1-n1c(CC)nc2c(c(C)c(C)n2CC(=O)Nc2ccc(C(F)(F)F)cc2Cl)c1=O [Example 4, N-(2-(7-(2-((2-Chloro-4-(trifluoromethyl)phenyl)amino)-2-oxoethyl)-2-ethyl-5,6-dimethyl-4-oxo-4,7-dihydro-3H-pyrrolo[2,3-d]pyrimidin-3-yl)phenyl)acrylamide] | < 100 | < 100
C=CS(=O)(=O)Nc1ccccc1-n1c(CC)nc2c(cnn2CC(=O)Nc2ccc(C(F)(F)F)cc2)c1=O [Example 2, 2-(6-Ethyl-4-oxo-5-(2-(vinylsulfonamido)phenyl)-4,5-dihydro-1H-pyrazolo[3,4-d]pyrimidin-1-yl)-N-(4-(trifluoromethyl)phenyl)acetamide] | < 100 | < 100

Further lines, results first:

IC50 (WRN [1]) [nM] | IC50 (WRN [2]) [nM] | Compound
< 100 | < 100 | C=CC(=O)Nc1cc(C(=O)NCC)ccc1-n1c(CC)nc2c(c(C)c(C)n2CC(=O)Nc2ccc(F)cc2)c1=O [Example 7, 3-Acrylamido-N-ethyl-4-(2-ethyl-7-(2-((4-fluorophenyl)amino)-2-oxoethyl)-5,6-dimethyl-4-oxo-4,7-dihydro-3H-pyrrolo[2,3-d]pyrimidin-3-yl)benzamide, trifluoroacetate salt]
< 100 | < 100 | C=CC(=O)Nc1ccccc1-n1c(CC)nc2c(c(C)c(C)n2CC(=O)Nc2ccc(F)cc2)c1=O [Example 5, N-(2-(2-Ethyl-7-(2-((4-fluorophenyl)amino)-2-oxoethyl)-5,6-dimethyl-4-oxo-4,7-dihydro-3H-pyrrolo[2,3-d]pyrimidin-3-yl)phenyl)acrylamide]
< 100 | < 100 | C=CC(=O)Nc1cc(C(=O)NCC)ccc1-n1c(CC)nc2c(c(C)c(C)n2CC(=O)Nc2ccc(C(F)(F)F)cc2)c1=O [Example 6, 3-Acrylamido-N-ethyl-4-(2-ethyl-5,6-dimethyl-4-oxo-7-(2-oxo-2-((4-(trifluoromethyl)phenyl)amino)ethyl)-4,7-dihydro-3H-pyrrolo[2,3-d]pyrimidin-3-yl)benzamide, trifluoroacetate salt]
